Laboratory results taken from patent US20260242362A1, “PREPARATION OF 3,4,5-TRISUBSTITUTED TRIAZOLES AND METHODS OF USING THE SAME” (University of Florida Research Foundation, Incorporated, priority 2023, published 2026).
Where two headings read alike, the source gives them in different places.

Assays:
kappa opioid receptor [1] = molecular target: T1, kappa opioid receptor (Homo sapiens, UniProt P41145); assay: GTPγS binding assay (G-protein activation); format: biochemical; settings: for EC50: 3 parameter nonlinear regression, nc = did not converge; for GTPγS Emax (% U60): relative to U69,593 = 100% Emax; for GTPγS maximum stimulation observed at 10 μM (starred Emax cells): * compounds that did not reach plateau
Target sequence in this assay (P41145 whole entry, the tested form may be a part): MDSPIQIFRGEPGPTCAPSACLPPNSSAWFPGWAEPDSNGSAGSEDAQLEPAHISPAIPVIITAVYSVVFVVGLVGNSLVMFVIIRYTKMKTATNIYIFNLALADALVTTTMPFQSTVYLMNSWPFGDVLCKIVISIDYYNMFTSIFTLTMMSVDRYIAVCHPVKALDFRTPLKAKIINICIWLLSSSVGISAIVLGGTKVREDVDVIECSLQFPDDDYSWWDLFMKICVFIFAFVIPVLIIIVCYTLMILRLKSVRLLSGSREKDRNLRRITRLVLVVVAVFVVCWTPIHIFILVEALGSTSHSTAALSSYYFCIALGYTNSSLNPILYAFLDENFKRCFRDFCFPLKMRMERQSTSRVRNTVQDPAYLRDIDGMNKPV

kappa opioid receptor [2] = molecular target: T1, kappa opioid receptor; assay: PathHunter DiscoverX β-arrestin2 recruitment (enzyme fragment complementation) assay; format: cell-based; settings: for EC50: 3 parameter nonlinear regression, nc = did not converge, read-out: β-arrestin2 EC50; for β-arrestin2 maximum stimulation observed at 10 μM (starred Emax cells / % max at 10 uM): * compounds that did not reach plateau; for β-arrestin2 Emax (% U60): relative to U69,593 = 100% Emax, ~ did not plateau at 100%
Target sequence in this assay (P41145 whole entry, the tested form may be a part): as above
Target sequence in this assay (P32121 whole entry partner, the tested form may be a part): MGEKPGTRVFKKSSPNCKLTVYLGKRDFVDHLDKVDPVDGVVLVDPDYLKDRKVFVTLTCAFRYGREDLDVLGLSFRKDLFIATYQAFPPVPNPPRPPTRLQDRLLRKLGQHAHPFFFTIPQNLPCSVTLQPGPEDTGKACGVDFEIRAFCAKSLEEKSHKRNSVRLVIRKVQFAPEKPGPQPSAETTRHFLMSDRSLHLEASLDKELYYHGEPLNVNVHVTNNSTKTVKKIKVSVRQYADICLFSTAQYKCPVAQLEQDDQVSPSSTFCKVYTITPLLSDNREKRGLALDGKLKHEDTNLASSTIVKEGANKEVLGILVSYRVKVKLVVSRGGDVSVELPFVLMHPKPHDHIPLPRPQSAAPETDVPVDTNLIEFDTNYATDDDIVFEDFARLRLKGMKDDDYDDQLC

[3] = mouse, microsomes
Procedure: (§1) Microsomal stability was determined using mouse hepatic microsomes and LC/MS detections over time (Zhou et al., 2013, 22).

[4] = Microsomal stability, LC/MS detection over time; settings: mouse hepatic microsomes
Procedure: as §1

kappa opioid receptor [5] = molecular target: T1, kappa opioid receptor; assay: Bias analysis by operational model, G protein vs βarrestin2, U69,593 as reference agonist; settings: U69,593 reference agonist; global parameter fitting
Target sequence in this assay (P41145 whole entry, the tested form may be a part): as the sequence (P41145 whole entry, the tested form may be a part) above

SMILES | EC50 (kappa opioid receptor [1]) [µM] | GTPγS Emax (% U60) (kappa opioid receptor [1]) | EC50 (kappa opioid receptor [2]) [µM] | β-arrestin2 maximum stimulation observed at 10 μM (starred Emax cells / % max at 10 uM) (kappa opioid receptor [2]) | Microsomal Stability [3] | β-arrestin2 Emax (% U60) (kappa opioid receptor [2]) | further results
Cc1ccc(/C=C/c2nnc(-c3nccn3C)n2Cc2cccs2)cc1C(F)(F)F [52 (UNC9166)] | 0.349 | 74.2 | 55.8 | 37.7 (% max at 10 uM) % U60 | 12.2 min | – | –
FC(F)(F)c1ccc(CCc2nnc(-c3ccccn3)n2Cc2cccs2)cc1Cl [Compound 34] | 0.0014 | – | 0.127 | – | 1.3 min | – | –
O=C(Cc1ccccc1)c1nnc(-c2ccccn2)n1Cc1ccco1 [Compound 42] | – | – | – | – | 8.1 min | 2 | KOR potency / activity in words (SAR commentary) (kappa opioid receptor [1]): loss in potency; GTPγS maximum stimulation observed at 10 μM (starred Emax cells) (kappa opioid receptor [1]): 4* % U60; metabolic stability in words [3]: increased metabolic stability
Cc1ccc(/C=C/c2nnc(-c3ccccn3)n2Cc2cccs2)cc1C(F)(F)F [Compound 47] | – | 83 | – | 36* % U60 | 22.0 min | – | KOR potency / activity in words (SAR commentary) (kappa opioid receptor [1]): completely inactive
Clc1ccc(CCc2nnc(-c3ccccn3)n2Cc2cccs2)c(Cl)c1 [Compound 33] | – | 91 | – | – | – | 154 | Microsomal Stability [4]: 2.1 min
C(=C/c1nnc(-c2ccccn2)n1Cc1ccco1)/c1ccccc1 [Compound 38] | – | – | – | 0* % U60 | 19.4 min | – | GTPγS maximum stimulation observed at 10 μM (starred Emax cells) (kappa opioid receptor [1]): 3* % U60
Brc1ccccc1CCc1nnc(-c2ccccn2)n1Cc1cccs1 [Compound 30] | – | 84 | > 10 | 53* % U60 | 1.7 min | – | –
Cc1ccc(CCc2nnc(-c3ccccn3)n2Cc2ccncc2)cc1C(F)(F)F [Compound 12] | – | – | – | 12* % U60 | 0.9 min | – | GTPγS maximum stimulation observed at 10 μM (starred Emax cells) (kappa opioid receptor [1]): 48* % U60
Cc1ccc(/C=C/c2nnc(-c3nccn3C)n2Cc2ccco2)cc1C(F)(F)F [Compound 49] | – | 76 | – | 17* % U60 | 14.1 min | – | –
Cc1ccc(CCc2nnc(-c3nccn3C)n2Cc2ccco2)cc1C(F)(F)F [Compound 54] | 0.069 | 92 | 0.788 | – | 1.6 min | 112 | Emax (weak partial agonist) (kappa opioid receptor [2]; text b193, assay not named): about 26%
Clc1ccc(CCc2nnc(-c3ccccn3)n2Cc2cccs2)cc1Cl [Compound 32] | – | – | – | – | – | – | Microsomal Stability [4]: 1.5 min
Cc1ccc(/C=C/c2nnc(-c3nccn3C)n2Cc2nccs2)cc1C(F)(F)F [Compound 51] | 0.309 | – | 1.68 | – | 14.5 min | 34 | –
Cc1ccc(CN(Cc2ccco2)C(=O)c2ccccn2)cc1C(F)(F)F [Compound 57] | 0.368 | 92 | 3.13 | – | 1.8 min | 87 | –
Cc1ccc(CCc2nnc(-c3ccccn3)n2Cc2ccccn2)cc1C(F)(F)F [Compound 10] | – | 784 | 7.69 | – | 1.0 min | 125 | –
Cc1ccc(CCN(CCc2ccco2)C(=O)c2ccccn2)cc1C(F)(F)F [Compound 61] | 1.54 | 78 | > 10 | 41* % U60 | 0.9 min | – | –
Cc1ccc(/C=C/c2nnc(-c3nccn3C)n2Cc2nccs2)cc1C(F)(F)F [53 (UNC9081)] | 0.309 | – | 1.57 | 25.9 (% max at 10 uM) % U60 | 14.5 min | – | –
Cc1ccc(CCc2nnc(-c3cccn3C)n2Cc2cccs2)cc1C(F)(F)F [Compound 23] | 0.036 | – | 1.32 | – | 3.1 min | – | –
Cc1ccc(/C=C/c2nnc(-c3ccccn3)n2Cc2ccco2)cc1C(F)(F)F [42 (UNC9008)] | 1.6 | 96.5 | 51.3 | – | – | 119 | Bias (bias factor 10^ΔΔ(logτ/KA) Gprotein-Barr2) (kappa opioid receptor [5]): 3.5
Cc1ccc(CCCc2nnc(-c3ccccn3)n2Cc2ccco2)cc1C(F)(F)F [Compound 3] | 0.812 | 74 | – | – | 1.6 | – | –
